Data on five molecules can be found in patent publication US12186306B2, “Methods of treatment for cystic fibrosis” (Vertex Pharmaceuticals Incorporated, priority 2020, dated 2025).

Where a name gives a salt, the structure may show the parent alone.

Series [1] in a line: Comparison of calcium salt hydrate forms: dissolution, solubility, exposure. The class given is physicochemical. Particulars: than the other calcium salt hydrate forms.
A short description of series [2]: Relative stability of solid (polymorphic) forms of Compound II. The class given is physicochemical.
In series [3] the test system is subjects with gating mutations. Kind of series: Clinical trial: absolute change in SwCl at 12 weeks in subjects with gating mutations on stable ivacaftor treatment; safety and tolerability. Format: in vivo, human. As to conditions: for Absolute change in SwCl at Week 12: LS mean (SE): subjects with gating mutations. As to the method: In a clinical trial, a comparative study was conducted on absolute changes in SwCl at 12 weeks in subjects with gating mutations where were on stable treatment with ivacaftor.

`CC1(C)C[C@@H]2CCCNc3cccc(n3)S(=O)(=O)NC(=O)c3ccc(-n4ccc(OCCC5C6(CC6)C56CC6)n4)nc3N1C2` [Compound II calcium salt hydrate Form A, (14S)-8-[3-(2-{Dispiro[2.0.2.1]heptan-7-yl}ethoxy)-1H-pyrazol-1-yl]-12,12-dimethyl-2λ6-thia-3,9,11,18,23-pentaazatetracyclo[17.3.1.111,14.05,10]tetracosa-1(22),5,7,9,19(23),20-hexaene-2,2,4-trione]: in series [1], the Dissolution entry is “higher”, the Exposure result is “higher” and the Solubility result is “higher”. The “Kinetic preference among calcium salt hydrate forms” value in series [2] is on record as “most kinetically favored calcium salt hydrate form”.

For `CC1(C)C[C@@H]2CCCNc3cccc(n3)S(=O)(=O)NC(=O)c3ccc(-n4ccc(OCCC5C6(CC6)C56CC6)n4)nc3N1C2` [Compound II free Form A, (14S)-8-[3-(2-{Dispiro[2.0.2.1]heptan-7-yl}ethoxy)-1H-pyrazol-1-yl]-12,12-dimethyl-2λ6-thia-3,9,11,18,23-pentaazatetracyclo[17.3.1.111,14.05,10]tetracosa-1(22),5,7,9,19(23),20-hexaene-2,2,4-trione], the Polymorphic form stability entry in series [2] (water activity ≤0.95 at ambient temperature) is listed as “most stable polymorphic form”.

As for `CC(C)(C)c1cc(C(C)(C)C)c(NC(=O)c2c[nH]c3ccccc3c2=O)cc1O` [Ivacaftor, reference compound], in series [3] (150 mg q12h, N = 11, week 12), the “Absolute change in SwCl at Week 12: LS mean (SE)” value stood at 0.9.

With `CC1(C)C[C@@H]2CCCNc3cccc(n3)S(=O)(=O)NC(=O)c3ccc(-n4ccc(OCCC5C6(CC6)C56CC6)n4)nc3N1C2` [Compound II calcium salt hydrate Form D, (14S)-8-[3-(2-{Dispiro[2.0.2.1]heptan-7-yl}ethoxy)-1H-pyrazol-1-yl]-12,12-dimethyl-2λ6-thia-3,9,11,18,23-pentaazatetracyclo[17.3.1.111,14.05,10]tetracosa-1(22),5,7,9,19(23),20-hexaene-2,2,4-trione], the Polymorphic form stability result in series [2] (in IPA/water at water activity 0.1-0.95 from ambient temperature to 60° C.) is reported as “most stable polymorphic form”. Also, the “Stability among calcium salt hydrate forms” value in series [2] (under certain conditions, such as in mixtures of ethanol and water) is recorded as “most stable form of calcium salt hydrate”.

Turning to `[2H]C([2H])([2H])C(c1cc(C(C)(C)C)c(NC(=O)c2c[nH]c3ccccc3c2=O)cc1O)(C([2H])([2H])[2H])C([2H])([2H])[2H]` [Compound I, N-(2-(tert-butyl)-5-hydroxy-4-(2-(methyl-d3)propan-2-yl-1,1,1,3,3,3-d6)phenyl)-4-oxo-1,4-dihydroquinoline-3-carboxamide], the Safety and tolerability entry in series [3] (150 mg and 250 mg for 12 weeks) is “generally safe and well tolerated”. Also, in series [3] (150 mg dose, week 12), the “SwCl compared to ivacaftor baseline” value was “decrease in SwCl”. The “Absolute change in SwCl at Week 12: LS mean difference vs Ivacaftor” value was 2.4 in series [3] (150 mg qd vs ivacaftor 150 mg q12h, week 12) and −7.3 in series [3] (250 mg qd vs ivacaftor 150 mg q12h, week 12). The “Absolute change in SwCl at Week 12: LS mean (SE)” value in series [3] (150 mg qd, N = 23, week 12) was 3.3; in series [3] (250 mg qd, N = 24, week 12), −6.5. Moreover, the “SwCl at week 12 compared to the ivacaftor baseline” value in series [3] (250 mg dose) was “improvement in SwCl”.
